Patent US9833497B2, “Human originated EGF domain proteins and use of the same” (CHENGDU SOURCEBIO LIMITED-LIABILITY COMPANY, priority 2013, dated 2017)

What was measured:
Format in all cases: cell-based
[1] = system: E. coli BL21; assay: MIC against Gram-negative bacteria: E. coli BL21
Outline: (§1)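 First, colonies from LB agar were grown in LB at 37° C, 185 rpm, to McFarland turbidity 0.5, then centrifuged and resuspended in fresh LB. Next, wells received 5×10^5 CFU/mL bacteria plus two-fold serially diluted EGF domain protein (triplicate). Finally, plates were shaken at 37° C and the no-growth concentration taken as MIC.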

[2] = system: Moraxella catarrhalis; assay: MIC against Gram-negative bacteria: Moraxella catarrhalis
Outline: as §1

[3] = system: Klebsiella pneumonia; assay: MIC against Gram-negative bacteria: Klebsiella pneumonia
Outline: as §1

[4] = system: Aeromonas hydrophila; assay: MIC against Gram-negative bacteria: Aeromonas hydrophila
Outline: as §1

[5] = system: Proteus vulgaris; assay: MIC against Gram-negative bacteria: Proteus vulgaris
Outline: as §1

[6] = system: E. coli DH5α; assay: Antibacterial activity: MIC and growth curve against E. coli DH5α in 96-well plate; settings: minimal inhibitory concentration against E. coli DH5α; 96-well plate, 5×10^5 CFU/mL, 37° C., judged after 8 h
Outline: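 Log-phase DH5α (OD600 about 0.5, 37° C, 185 rpm in LB) was pelleted, resuspended in fresh LB and seeded at 5×10^5 CFU/mL with recombinant protein at 50, 25 and 12.5 μg/mL (two-fold series), in triplicate. Plates were shaken at 175 rpm, 37° C, and OD600 was read every 30 min. MIC was the lowest concentration with no growth.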

[7] = system: Proteus mirabilis; assay: MIC against Gram-negative bacteria: Proteus mirabilis
Outline: as §1

[8] = system: Citrobacter diversus; assay: MIC against Gram-negative bacteria: Citrobacter diversus
Outline: as §1

[9] = system: Pseudomonas aeruginosa; assay: MIC against Gram-negative bacteria: Pseudomonas aeruginosa
Outline: as §1

[10] = system: Serratia marcescens; assay: MIC against Gram-negative bacteria: Serratia marcescens
Outline: as §1

[11] = system: Enterobacter cloacae; assay: MIC against Gram-negative bacteria: Enterobacter cloacae
Outline: as §1

[12] = 96-well plate, 5×10^5 CFU/mL, 37° C., 10 h
[13] = E. coli BL21, 10 h cultivation at 37° C., 5×10^5 CFU/mL
[14] = M. catarrhalis, 10 h cultivation at 37° C., 5×10^5 CFU/mL
[15] = K. pneumonia, 10 h cultivation at 37° C., 5×10^5 CFU/mL
[16] = A. hydrophila, 10 h cultivation at 37° C., 5×10^5 CFU/mL
[17] = P. vulgaris, 10 h cultivation at 37° C., 5×10^5 CFU/mL
[18] = P. mirabilis, 10 h cultivation at 37° C., 5×10^5 CFU/mL
[19] = C. diversus, 10 h cultivation at 37° C., 5×10^5 CFU/mL
[20] = P. aeruginosa, 10 h cultivation at 37° C., 5×10^5 CFU/mL
[21] = S. marcescens, 10 h cultivation at 37° C., 5×10^5 CFU/mL
[22] = E. cloacae, 10 h cultivation at 37° C., 5×10^5 CFU/mL

PRT535 (CQCDIGGALSSMCSGPSGVCQCREHVVGKVCQRPENNYYFPDLHH; listed as Homo sapiens)
MIC against E. coli BL21 [1, 12]: 25 µg/mL
MIC against M. catarrhalis [2, 12]: 12.5 µg/mL
MIC against K. pneumonia [3, 12]: 12.5 µg/mL
MIC against A. hydrophila [4, 12]: 12.5 µg/mL
MIC against P. vulgaris [5, 12]: 12.5 µg/mL
MIC [6]: 12.5 µg/mL
MIC against P. mirabilis [7, 12]: 50 µg/mL
MIC against C. diversus [8, 12]: 50 µg/mL
MIC against P. aeruginosa [9, 12]: 50 µg/mL
MIC against S. marcescens [10, 12]: 50 µg/mL
MIC against E. cloacae [11, 12]: 50 µg/mL

PRT1007 (HVNPCESRPCQNGATCMAQPSGYLCQCAPGYDGQNCS; listed as Homo sapiens)
MIC ([1]; E. coli BL21, 10 h cultivation at 37° C.): 12.5 µg/mL
MIC ([2]; M. catarrhalis, 10 h cultivation at 37° C.): 50 µg/mL
MIC ([3]; K. pneumonia, 10 h cultivation at 37° C.): 50 µg/mL
MIC ([4]; A. hydrophila, 10 h cultivation at 37° C.): 50 µg/mL
MIC ([5]; P. vulgaris, 10 h cultivation at 37° C.): 12.5 µg/mL
MIC [6]: 25 µg/mL
MIC ([7]; P. mirabilis, 10 h cultivation at 37° C.): 25 µg/mL
MIC ([8]; C. diversus, 10 h cultivation at 37° C.): 12.5 µg/mL
MIC ([9]; P. aeruginosa, 10 h cultivation at 37° C.): 25 µg/mL
MIC ([10]; S. marcescens, 10 h cultivation at 37° C.): 25 µg/mL
MIC ([11]; E. cloacae, 10 h cultivation at 37° C.): 12.5 µg/mL

PRT707 (GKTVCEDFCQNGGTCIVTAGNQPYCHCQPEYTGDRCQ; listed as Homo sapiens)
MIC E. coli BL21 [1, 12]: 25 µg/mL
MIC M. catarrhalis [2, 12]: 12.5 µg/mL
MIC K. pneumonia [3, 12]: 12.5 µg/mL
MIC A. hydrophila [4, 12]: 25 µg/mL
MIC P. vulgaris [5, 12]: 25 µg/mL
MIC [6]: 50 µg/mL
MIC P. mirabilis [7, 12]: 12.5 µg/mL
MIC C. diversus [8, 12]: 12.5 µg/mL
MIC P. aeruginosa [9, 12]: 50 µg/mL
MIC S. marcescens [10, 12]: 12.5 µg/mL
MIC E. cloacae [11, 12]: 12.5 µg/mL

PRT803 (HGKGCQLPCQCRHGASCDPRAGECLCAPGYTGVYCE; listed as Homo sapiens)
MIC (μg/mL) E. coli BL21 [1, 13]: 50 µg/mL
MIC (μg/mL) M. catarrhalis [2, 14]: 100 µg/mL
MIC (μg/mL) K. pneumonia [3, 15]: 25 µg/mL
MIC (μg/mL) A. hydrophila [4, 16]: 25 µg/mL
MIC (μg/mL) P. vulgaris [5, 17]: 12.5 µg/mL
MIC [6]: 50 µg/mL
MIC (μg/mL) P. mirabilis [7, 18]: 50 µg/mL
MIC (μg/mL) C. diversus [8, 19]: 25 µg/mL
MIC (μg/mL) P. aeruginosa [9, 20]: 12.5 µg/mL
MIC (μg/mL) S. marcescens [10, 21]: 50 µg/mL
MIC (μg/mL) E. cloacae [11, 22]: 50 µg/mL

PRT13 (PARSCAEEPCGAGTCKETEGHVICLCPPGYTGEHCN; listed as Homo sapiens)
MIC (μg/mL) E. coli BL21 ([1]; E. coli BL21, 96-well plate, 5×10^5 CFU/mL, 37° C., 10 h): 12.5 µg/mL
MIC (μg/mL) M. catarrhalis ([2]; Moraxella catarrhalis, 96-well plate, 5×10^5 CFU/mL, 37° C., 10 h): 12.5 µg/mL
MIC (μg/mL) K. pneumonia ([3]; Klebsiella pneumonia, 96-well plate, 5×10^5 CFU/mL, 37° C., 10 h): 25 µg/mL
MIC (μg/mL) A. hydrophila ([4]; Aeromonas hydrophila, 96-well plate, 5×10^5 CFU/mL, 37° C., 10 h): 12.5 µg/mL
MIC (μg/mL) P. vulgaris ([5]; Proteus vulgaris, 96-well plate, 5×10^5 CFU/mL, 37° C., 10 h): 25 µg/mL
MIC [6]: 25 µg/mL
MIC (μg/mL) P. mirabilis ([7]; Proteus mirabilis, 96-well plate, 5×10^5 CFU/mL, 37° C., 10 h): 50 µg/mL
MIC (μg/mL) C. diversus ([8]; Citrobacter diversus, 96-well plate, 5×10^5 CFU/mL, 37° C., 10 h): 25 µg/mL
MIC (μg/mL) P. aeruginosa ([9]; Pseudomonas aeruginosa, 96-well plate, 5×10^5 CFU/mL, 37° C., 10 h): 12.5 µg/mL
MIC (μg/mL) S. marcescens ([10]; Serratia marcescens, 96-well plate, 5×10^5 CFU/mL, 37° C., 10 h): 12.5 µg/mL
MIC (μg/mL) E. cloacae ([11]; Enterobacter cloacae, 96-well plate, 5×10^5 CFU/mL, 37° C., 10 h): 12.5 µg/mL

PRT255 (DVDECVGLQPVCPQGTTCINTGGSFQCVSPECPEG; listed as Homo sapiens)
MIC (μg/mL) E. coli BL21 [1, 13]: 12.5 µg/mL
MIC (μg/mL) M. catarrhalis [2, 14]: 25 µg/mL
MIC (μg/mL) K. pneumonia [3, 15]: 12.5 µg/mL
MIC (μg/mL) A. hydrophila [4, 16]: 25 µg/mL
MIC (μg/mL) P. vulgaris [5, 17]: 25 µg/mL
MIC [6]: 12.5 µg/mL
MIC (μg/mL) P. mirabilis [7, 18]: 100 µg/mL
MIC (μg/mL) C. diversus [8, 19]: 12.5 µg/mL
MIC (μg/mL) P. aeruginosa [9, 20]: 12.5 µg/mL
MIC (μg/mL) S. marcescens [10, 21]: 12.5 µg/mL
MIC (μg/mL) E. cloacae [11, 22]: 12.5 µg/mL
